These results are taken from paper PMC8042013 (Nature Communications, 2021).

For orientation: Kd means the equilibrium constant for the complex coming apart. Higher therefore signals lower affinity.

The assay addresses T1, OsCERK1-ECD (Oryza sativa, UniProt A0A0P0XII1).
T1 construct: gene CERK1; N-terminal gp67 signal peptide for secretion, C-terminal His6; baculovirus, Trichoplusia ni High Five cells; secreted soluble protein
T1 sequence (A0A0P0XII1 19-240 limits assumed): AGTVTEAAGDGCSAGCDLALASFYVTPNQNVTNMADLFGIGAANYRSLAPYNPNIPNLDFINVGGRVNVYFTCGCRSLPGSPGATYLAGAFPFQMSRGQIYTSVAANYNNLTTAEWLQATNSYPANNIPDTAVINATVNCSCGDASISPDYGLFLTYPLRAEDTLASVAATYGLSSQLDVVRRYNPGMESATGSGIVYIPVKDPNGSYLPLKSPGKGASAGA
In words: microscale thermophoresis, label-free. Particulars: 50 mM Tris-HCl pH 7.8, 150 mM NaCl, 10 mM MgCl2, 0.05% Tween-20. In kind it is binding.
`OC[C@H]1O[C@@H](O[C@H]2[C@H](O)[C@@H](O)[C@H](O[C@H]3[C@H](O)[C@@H](O)[C@H](O[C@H]4[C@H](O)[C@@H](CO)OC(O)[C@@H]4O)O[C@@H]3CO)O[C@@H]2CO)[C@H](O)[C@@H](O)[C@@H]1O` (stereo partly drawn) [BGTETB, 3^1-β-D-cellotriosyl-glucose] yielded a Kd of 2900 ± 570 nM.

Turning to `OC[C@H]1O[C@@H](O[C@@H]2[C@@H](O)[C@H](O[C@H]3[C@H](O)[C@@H](O)C(O)O[C@@H]3CO)O[C@H](CO)[C@H]2O)[C@H](O)[C@@H](O)[C@@H]1O` (stereo partly drawn) [BGTRIA, 3^2-β-D-glucosyl-cellobiose], the Kd was determined as 4380 ± 580 nM. This Kd lies about 1.5-fold higher than the previous one. The figure for `OC[C@H]1O[C@@H](O[C@H]2[C@H](O)[C@@H](O)[C@H](O[C@H]3[C@H](O)[C@@H](CO)OC(O)[C@@H]3O)O[C@@H]2CO)[C@H](O)[C@@H](O)[C@@H]1O` (stereo partly drawn) [BGTRIB, 3^1-β-D-cellobiosyl-glucose] is 1950 ± 450 nM; for `OC[C@H]1O[C@@H](O[C@H]2[C@H](O)[C@@H](O)[C@H](O[C@H]3[C@H](O)[C@@H](O)[C@H](O[C@H]4[C@H](O)[C@@H](O)C(O)O[C@@H]4CO)O[C@@H]3CO)O[C@@H]2CO)[C@H](O)[C@@H](O)[C@@H]1O` (some centres unmarked) [CTE, cellotetraose] it is 2840 ± 890 nM; for `OC[C@H]1O[C@@H](O[C@H]2[C@H](O)[C@@H](O)[C@H](O[C@H]3[C@H](O)[C@@H](O)C(O)O[C@@H]3CO)O[C@@H]2CO)[C@H](O)[C@@H](O)[C@@H]1O` (some centres unmarked) [CTR, cellotriose] it is 4280 ± 1670 nM.
